The target in data set [1] is Mouse Ghrelin Receptor (GHS-R 1A) (Mus musculus (Mouse), UniProt Q99P50). The data set is described as follows: Calcium release, antagonist. The data set is classed as cell-based. An excerpt:
(§1) Mouse LTK-cells (ATCC CCL-1.3) were stably transfected with a plasmid containing the CMV minimal promoter (CMVmin) linked to three cAMP response elements (CRE) followed by a luciferase reporter gene. Based on this parental cell line, single cell clones stably overexpressing the human, rat or mouse GHS-R 1A have been established and characterized with respect to suitability for the different assay formats.
(§2) For determination of calcium release the respective cell line was loaded with Fluo-4 NW Calcium Assay Kit (Moleculare Probes/Invitrogen # F10741) for 80 min @ 37° C. After 15 minutes of preincubation with different concentrations of the test compounds ghrelin was added and the signal was monitored for 60 seconds by a FlexStation3 microplate reader (Molecular Devices).
(§3) IC50 values were determined by using the GraphPad Prism analysis program (GraphPad Software).
(§4) In the following table 1 results obtained for selected compounds of the invention are presented in comparison to compound 50 disclosed in WO07/020,013. Values given are either single measurements or mean values of up to nine independent experiments performed in duplicate (binding) or quadruplicate (functional assays) measurements.

Data set [2] has as its target Rat Ghrelin Receptor (GHS-R 1A) (Rattus norvegicus (Rat), UniProt O08725). The data set is described as follows: Calcium release, antagonist. The data set is classed as cell-based.
Source text: as §1, §2, §3, §4

The target of data set [3] is MDR-1 (P-glycoprotein, Pgp) (Homo sapiens (Human), UniProt P08183). The data set is described as follows: Inhibition of MDR1 ATPase (Pgp-Glo assay, SF9 membrane preparations). The data set is classed as biochemical. On the procedure: For detection of MDR-1 (P-glycoprotein, Pgp) ATPase activity commercially available membrane preparations of MDR-1 overexpressing SF9 insect cells (SB-MDR1-Sf9-ATPase Membrane; 2.5 mg/500 μL; Solvo/tebu-bio #168SB-MDR1-Sf9-ATPase) were used. Since transport by MDR-1 is ATP-dependent, ATP consumption indicates transport activity of MDR-1. ATP consumption is detected as a decrease in luminescence from a second reaction with a recombinant firefly luciferase by using the Pgp-Glo™ Assay Kit (Promega # V3591).

For a further data set, the target named is hERG channel (Homo sapiens (Human), UniProt Q12809). As to the kind of experiment: Predictor hERG Fluorescence Polarization Assay. The data set is classed as binding. An excerpt:
The Predictor™ hERG Fluorescence Polarization Assay (Invitrogen, Karlsruhe, GER) determines whether test compounds block the hERG channel [Piper, D. R. et al., Assay Drug Dev Technol. 2008, 6(2):213-23]. The assay uses a membrane fraction containing hERG channel protein (Predictor™ hERG Membrane) and a high-affinity red fluorescent hERG channel ligand, or “tracer” (Predictor™ hERG Tracer Red), in a homogenous, fluorescence polarization (FP)-based format. Compounds that bind to the hERG channel protein (competitors) are identified by their ability to displace the tracer, resulting in a lower fluorescence polarization. The assay was performed according to guidelines of the manufacturer

Another data set has as its target CYP3A4 (Homo sapiens (Human), UniProt P08684). As to the kind of experiment: CYP3A4 inhibition in human liver microsomes, direct and metabolism-dependent. The data set is classed as in vitro ADME. Here is the method: Direct and metabolism-dependent inhibition of CYP enzymes are assessed with specific marker substrates by a HPLC-based UV detection method in human liver microsomes. Incubations are carried out as doublets with final concentrations ranging from 0.01 to 200 μM (30 min, 37° C.). Metabolism-dependent inhibition was assessed by incubation for 30 minutes in the presence of NADPH prior to the addition of marker substrate to allow the generation of metabolites. Percent inhibition is plotted against concentration to calculate or extrapolate IC50 values from the sigmoid curve.
In general terms: Liver microsomes are vesicles of endoplasmic reticulum, rich in cytochrome P450 enzymes.

The nature of data set [4]: Stability in liver microsomes. The data set is classed as in vitro ADME, human. The following applies: @37° C./1 mg/ml Liver Microsomes, 10 μM. On the procedure: (§5) Metabolic stability in liver microsomes of different species (in the presence of NADPH, 1 mg/ml microsomal protein) was evaluated at 37° C. over time in triplicates at a test concentration of 10 μM. Loss of parent compound is measured by an HPLC-based UV detection method. For prediction of rat hepatic clearance half-lives (t1/2) were fitted from first-order rate constant k (min^−1) obtained from the slope of time versus In % remaining.

A short description of data set [5]: Stability in liver microsomes. The data set is classed as in vitro ADME, rat. The following applies: @37° C./1 mg/ml Liver Microsomes, 10 μM. On the procedure:
as §5

A short description of data set [6]: Stability in liver microsomes. The data set is classed as in vitro ADME, mouse. The following applies: 37° C./1 mg/ml Liver Microsomes, 10 μM. On the procedure: as §5
Data set [7] can be described thus: CaCo-2 permeability assay. The data set is classed as in vitro ADME. As to conditions: human; for Papp A→B at 2 h: a to b, read-out: CaCo-2 Assay Papp ab; for Papp A→B at 2 h / Papp B→A at 2 h: 3 or 5 μM, 2 hours at 37° C.; for Papp B→A at 2 h: b to a, read-out: CaCo-2 Assay Papp ba; for efflux ratio at 2 h: read-out: CaCo-2 Assay ba/ab. On the procedure:
For the CaCo-2 permeability assay 80.000 CaCo-2 cells (ATCC HTB-37) were seeded in DMEM supplemented with 10% FCS, 1% Penicillin/Streptomycin and 1% non-essential amino acids per 24 well transwell plate (Corning 3397) and were grown for 21 days by changing the media every second day. On day 21 the medium was replaced by HBSS buffer (Invitrogen #14065) supplemented with 0.25% and 1% BSA for the donor and acceptor compartment, respectively. The compounds were added to the respective donor compartment in a concentration of 3 or 5 μM and were incubated for 2 hours at 37° C. The respective compound concentrations were determined by LC-MS analytics using an API 2000. Data analysis was performed as described by Sun and Pang 2008, Drug Metabolism and Disposition 36, 102-123.

Data set [8] deals with T1, Human Ghrelin Receptor (GHS-R 1A) (Homo sapiens (Human), UniProt Q92847). As to the kind of experiment: Competitive binding, iodinated ghrelin tracer, intact LTK-cells overexpressing GHS-R 1A. As to conditions: 60 min at 37° C.
Source text: as §1
For receptor competitive binding studies, iodinated ghrelin was used as a tracer at conditions of about 80% saturation binding. Different concentrations of the test compounds were analyzed for displacement of the tracer. For this purpose, the suspension of intact cells plus tracer mix and different test compound concentrations was layered on top of silicon/paraffin oil, incubated for 60 min at 37° C. and subjected to centrifugation. After freezing in liquid nitrogen the cell pellets were separated from the supernatant by cutting the tubes in the intermediate silicon/paraffin oil section and analyzed by γ-radiation analysis. The amount of unspecific binding was determined by including unlabeled ghrelin at 1 μM final concentration.
as §3
(§6) Values given are either single measurements or mean values of up to nine independent experiments performed in duplicate (binding) or quadruplicate (functional assays) measurements.

Data set [9] has as its target T1, Human Ghrelin Receptor (GHS-R 1A). As to the kind of experiment: CRE/Luc reporter gene assay, antagonist. The data set is classed as cell-based. As to conditions: 6 h, 1 μM rolipram.
Source text: as §1
For the CRE/Luc reporter gene assay, the mouse LTK-cells stably expressing the human GHS-1RA and a luciferase reporter gene under the control of CRE elements and the CMV minimal promoter were incubated for 6 h with 1 μM rolipram in the presence of different concentrations of AEZS-130. Subsequently, cells were lysed and ATP bioluminescence was measured in the luminescence mode on FlexStation3 (Molecular Devices).
as §3, §6
On the technique in general: Reporter assays use an easily measured gene product as a stand-in for the process of interest.

For data set [10] the target is unchanged. The data set is described as follows: Calcium release, antagonist. The data set is classed as cell-based. As to conditions: 15 minutes preincubation, then ghrelin.
Source text: as §1, §2, §3, §6

Setting [11] is: marker substrate midazolam, 30 minutes preincubation with NADPH, read-out: CYP3A4 Inhibition Midazolam Preincubation EC50.
Where [12] appears, read: marker substrate midazolam, direct inhibition, human liver microsomes, read-out: CYP3A4 Inhibition Midazolam EC50.
Setting [13] is: 15 minutes preincubation, then ghrelin, read-out: Mouse Ghrelin Receptor Antagonist Calcium Release IC50.
Setting [14] is: 15 minutes preincubation, then ghrelin, read-out: Rat Ghrelin Receptor Antagonist Calcium Release IC50.

pEC50, pIC50: −log10 of the molar value. Where two headings read alike, the source gives them in different places.

T1 sequence (Q92847 whole entry): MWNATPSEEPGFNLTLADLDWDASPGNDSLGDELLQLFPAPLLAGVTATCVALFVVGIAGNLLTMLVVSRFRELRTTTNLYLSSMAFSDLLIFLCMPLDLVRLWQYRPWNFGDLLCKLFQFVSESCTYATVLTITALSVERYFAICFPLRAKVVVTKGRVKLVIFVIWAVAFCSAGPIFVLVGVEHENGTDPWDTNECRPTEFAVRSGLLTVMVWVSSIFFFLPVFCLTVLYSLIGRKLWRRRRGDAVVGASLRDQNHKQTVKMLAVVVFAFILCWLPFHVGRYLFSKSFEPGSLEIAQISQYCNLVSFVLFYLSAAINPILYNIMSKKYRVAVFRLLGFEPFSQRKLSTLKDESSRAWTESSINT
Sequence of Rat Ghrelin Receptor (GHS-R 1A) (O08725 whole entry): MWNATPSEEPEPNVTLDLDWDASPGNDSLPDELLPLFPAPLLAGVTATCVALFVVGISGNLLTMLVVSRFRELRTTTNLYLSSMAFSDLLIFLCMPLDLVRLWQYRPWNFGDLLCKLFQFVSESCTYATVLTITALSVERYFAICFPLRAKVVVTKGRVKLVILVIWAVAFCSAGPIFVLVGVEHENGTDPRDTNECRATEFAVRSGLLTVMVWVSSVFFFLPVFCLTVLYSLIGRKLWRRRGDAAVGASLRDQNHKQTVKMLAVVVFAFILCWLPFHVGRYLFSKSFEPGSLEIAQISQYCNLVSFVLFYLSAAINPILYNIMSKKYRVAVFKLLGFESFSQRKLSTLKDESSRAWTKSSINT
Sequence of Mouse Ghrelin Receptor (GHS-R 1A) (Q99P50 whole entry): as the sequence (O08725 whole entry) above, with P30S, A249S counted along it
Sequence of MDR-1 (P-glycoprotein, Pgp) (P08183 whole entry): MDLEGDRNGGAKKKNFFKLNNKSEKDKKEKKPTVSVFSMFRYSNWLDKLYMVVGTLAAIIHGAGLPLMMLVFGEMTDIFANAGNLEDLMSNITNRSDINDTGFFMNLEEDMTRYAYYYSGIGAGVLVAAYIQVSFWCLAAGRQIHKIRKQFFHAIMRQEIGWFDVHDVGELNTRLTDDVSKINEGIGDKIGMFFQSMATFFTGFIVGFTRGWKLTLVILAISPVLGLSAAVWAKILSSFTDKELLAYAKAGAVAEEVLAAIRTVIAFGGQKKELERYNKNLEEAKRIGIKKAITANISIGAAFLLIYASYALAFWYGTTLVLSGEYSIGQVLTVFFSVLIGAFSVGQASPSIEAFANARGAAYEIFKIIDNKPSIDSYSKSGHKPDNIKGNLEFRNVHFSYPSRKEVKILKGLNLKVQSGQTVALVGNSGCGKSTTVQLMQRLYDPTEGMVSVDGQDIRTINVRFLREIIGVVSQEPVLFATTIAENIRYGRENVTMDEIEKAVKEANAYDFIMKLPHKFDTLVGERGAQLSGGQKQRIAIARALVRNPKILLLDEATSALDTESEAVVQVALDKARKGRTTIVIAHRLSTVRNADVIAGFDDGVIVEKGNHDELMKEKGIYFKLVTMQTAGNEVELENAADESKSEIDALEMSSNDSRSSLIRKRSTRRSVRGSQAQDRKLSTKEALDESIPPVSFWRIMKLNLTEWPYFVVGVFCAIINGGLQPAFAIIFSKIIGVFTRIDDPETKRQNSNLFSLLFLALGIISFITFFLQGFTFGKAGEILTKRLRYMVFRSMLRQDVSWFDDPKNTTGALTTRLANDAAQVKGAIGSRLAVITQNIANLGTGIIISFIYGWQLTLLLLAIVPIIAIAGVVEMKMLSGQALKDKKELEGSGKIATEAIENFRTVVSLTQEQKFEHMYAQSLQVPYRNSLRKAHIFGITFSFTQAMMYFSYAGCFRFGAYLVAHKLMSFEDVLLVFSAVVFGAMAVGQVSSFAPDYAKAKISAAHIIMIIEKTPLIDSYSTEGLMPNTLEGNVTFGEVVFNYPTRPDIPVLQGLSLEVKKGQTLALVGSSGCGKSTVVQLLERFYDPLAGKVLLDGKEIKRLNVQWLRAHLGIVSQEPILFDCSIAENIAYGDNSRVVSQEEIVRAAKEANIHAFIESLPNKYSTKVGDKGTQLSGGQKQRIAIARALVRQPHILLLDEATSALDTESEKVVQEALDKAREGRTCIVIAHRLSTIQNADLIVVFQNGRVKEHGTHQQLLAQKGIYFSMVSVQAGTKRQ
Sequence of CYP3A4 (P08684 whole entry): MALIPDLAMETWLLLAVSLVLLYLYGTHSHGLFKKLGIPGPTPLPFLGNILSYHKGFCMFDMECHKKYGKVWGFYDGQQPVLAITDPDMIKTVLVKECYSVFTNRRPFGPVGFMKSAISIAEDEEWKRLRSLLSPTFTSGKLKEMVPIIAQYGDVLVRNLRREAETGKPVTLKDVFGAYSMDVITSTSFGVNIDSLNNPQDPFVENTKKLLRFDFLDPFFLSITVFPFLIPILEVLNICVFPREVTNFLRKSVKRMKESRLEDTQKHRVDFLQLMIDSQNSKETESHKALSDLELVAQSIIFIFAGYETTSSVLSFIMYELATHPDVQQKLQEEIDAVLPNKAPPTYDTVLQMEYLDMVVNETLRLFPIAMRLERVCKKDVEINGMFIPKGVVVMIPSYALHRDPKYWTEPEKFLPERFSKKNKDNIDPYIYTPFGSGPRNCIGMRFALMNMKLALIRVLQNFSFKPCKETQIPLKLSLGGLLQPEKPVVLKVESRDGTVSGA
Sequence of hERG channel (Q12809 whole entry): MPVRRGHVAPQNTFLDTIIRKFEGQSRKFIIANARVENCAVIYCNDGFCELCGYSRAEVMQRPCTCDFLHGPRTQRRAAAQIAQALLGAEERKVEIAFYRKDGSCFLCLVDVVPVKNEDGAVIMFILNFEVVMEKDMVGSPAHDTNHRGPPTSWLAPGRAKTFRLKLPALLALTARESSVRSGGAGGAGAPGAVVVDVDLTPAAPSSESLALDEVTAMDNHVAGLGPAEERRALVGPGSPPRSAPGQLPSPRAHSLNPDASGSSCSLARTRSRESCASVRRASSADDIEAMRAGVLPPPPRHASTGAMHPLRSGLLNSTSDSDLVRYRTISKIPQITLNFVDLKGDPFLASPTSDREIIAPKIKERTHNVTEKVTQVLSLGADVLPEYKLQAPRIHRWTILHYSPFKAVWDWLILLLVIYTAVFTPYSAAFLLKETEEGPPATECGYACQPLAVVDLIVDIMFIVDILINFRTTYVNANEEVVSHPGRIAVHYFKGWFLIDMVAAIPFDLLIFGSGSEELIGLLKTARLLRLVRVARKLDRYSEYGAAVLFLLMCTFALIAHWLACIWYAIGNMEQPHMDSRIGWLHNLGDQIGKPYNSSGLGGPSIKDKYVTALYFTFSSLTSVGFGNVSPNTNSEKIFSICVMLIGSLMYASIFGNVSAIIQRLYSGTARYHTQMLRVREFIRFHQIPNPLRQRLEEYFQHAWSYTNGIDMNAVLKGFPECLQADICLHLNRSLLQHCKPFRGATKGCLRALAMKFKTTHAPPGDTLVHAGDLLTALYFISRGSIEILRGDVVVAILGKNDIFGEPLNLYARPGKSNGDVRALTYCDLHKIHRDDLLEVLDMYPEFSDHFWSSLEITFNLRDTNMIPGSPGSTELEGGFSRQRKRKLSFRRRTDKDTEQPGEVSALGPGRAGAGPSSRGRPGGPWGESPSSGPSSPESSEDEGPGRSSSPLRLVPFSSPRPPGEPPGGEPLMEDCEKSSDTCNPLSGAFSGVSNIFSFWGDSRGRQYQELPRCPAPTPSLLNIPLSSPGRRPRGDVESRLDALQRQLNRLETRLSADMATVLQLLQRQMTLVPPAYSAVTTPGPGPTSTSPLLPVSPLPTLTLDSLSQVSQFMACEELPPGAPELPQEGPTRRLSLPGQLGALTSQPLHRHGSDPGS

The pIC50 is the negative decadic logarithm of the IC50, by convention in mol/L. For orientation: pEC50 means the negative decadic logarithm of the EC50, by convention in mol/L. As to `COc1ccc(Cn2c([C@@H](Cc3ccccc3)NC(C)=O)nnc2[C@@H](Cc2c[nH]c3ccccc23)NC(=O)c2ccccn2)cc1.O=C(O)C(F)(F)F` [Cpd 4, Pyridine-2-carboxylic acid [(R)-1-[5-((R)-1-acetylamino-2-phenyl-ethyl)-4-(4-methoxy-benzyl)-4H-[1,2,4]triazol-3-yl]-2-(1H-indol-3-yl)-ethyl]-amide], the negative-log IC50 (pIC50) in data set [1] was 7.16. In data set [2], the negative-log IC50 (pIC50) was 6.62. For the same compound, the “Inhibition of MDR1 ATPase EC50” value in data set [3] was “no full dose”. For the same compound, the “hERG Predictor EC50” value at hERG channel is “no full dose”. Moreover, at CYP3A4 (setting [11]), the negative-log EC50 (pEC50) was 5.64. For the same compound, on CYP3A4 (setting [12]), the pEC50 was 5.41. The “Stability in Liver Microsomes Human % Remaining after 1 h Incubation” value in data set [4] was found to be 9.1%. For the same compound, the “Stability in Liver Microsomes Rat % Remaining after 1 h Incubation” value in data set [5] is recorded as 46.7%. The “Stability in Liver Microsomes Mouse % Remaining (@30 min)” value in data set [6] stood at 0.0%. In [7], the Papp A→B at 2 h was found to be 1.41 ×10⁻⁶ cm/s, the Papp B→A at 2 h is 25.4 ×10⁻⁶ cm/s and the efflux ratio at 2 h was determined as 18.

For `COc1ccc(Cn2c([C@@H](Cc3ccccc3)NC=O)nnc2[C@@H](Cc2c[nH]c3ccccc23)NC(=O)c2ccccn2)cc1.O=C(O)C(F)(F)F` [Cpd 5, Pyridine-2-carboxylic acid [(R)-1-[5-((R)-1-formylamino-2-phenyl-ethyl)-4-(4-methoxy-benzyl)-4H-[1,2,4]triazol-3-yl]-2-(1H-indol-3-yl)-ethyl]-amide], the pIC50 in data set [8] is 8.47; in [9], 8.08; in data set [10], 8.51; in [1] (setting [13]) it was 7.05; in data set [2] (setting [14]), 6.54. For the same compound, in [3], the “Inhibition of MDR1 ATPase EC50” value was “no inhibition”. Moreover, at hERG channel, the “hERG Predictor EC50” value was “no full dose”. The values for the negative-log EC50 (pEC50) at CYP3A4 (setting [11]) and on CYP3A4 (setting [12]) were 5.92 and 5.42, respectively. Moreover, the “Stability in Liver Microsomes Human % Remaining after 1 h Incubation” value in data set [4] stood at 0%. Besides, the “Stability in Liver Microsomes Rat % Remaining after 1 h Incubation” value in data set [5] is reported as 41.9%. The “Stability in Liver Microsomes Mouse % Remaining (@30 min)” value in data set [6] amounted to 0.0%. Besides, in [7], the Papp A→B at 2 h is 1.26 ×10⁻⁶ cm/s. Also, the Papp B→A at 2 h in data set [7] is 16.8 ×10⁻⁶ cm/s. For the same compound, the efflux ratio at 2 h in [7] amounted to 13.3.

In the case of `COc1ccc(Cn2c(CCc3ccccc3)nnc2[C@@H](Cc2c[nH]c3ccccc23)NC(=O)OCC(C)C)cc1.O=C(O)C(F)(F)F` [Cpd 17, {(R)-2-(1H-Indol-3-yl)-1-[4-(4-methoxy-benzyl)-5-phenethyl-4H-[1,2,4]triazol-3-yl]-ethyl}-carbamic acid isobutyl ester], the pIC50 is 8.07 in data set [8]; 7.68 in data set [9]; 7.50 in [10]; 6.22 in [1] (setting [13]); 6.03 in data set [2] (setting [14]). Also, in [3], the “Inhibition of MDR1 ATPase EC50” value was “no full dose”. For the same compound, the pEC50 on hERG channel was 5.43; at CYP3A4 (marker substrate testosteron, 30 minutes preincubation with NADPH, read-out: CYP3A4 Inhibition Testosteron Preincubation EC50) it was 5.70; at CYP3A4 (marker substrate testosteron, direct inhibition, human liver microsomes, read-out: CYP3A4 Inhibition Testosteron EC50) it was 4.98. Besides, the “Stability in Liver Microsomes Human % Remaining after 1 h Incubation” value in data set [4] was determined as 0%. The “Stability in Liver Microsomes Rat % Remaining after 1 h Incubation” value in data set [5] came to 24.8%. The “Stability in Liver Microsomes Mouse % Remaining (@30 min)” value in [6] is given as 0.0%. Moreover, the Papp A→B at 2 h in data set [7] is 22.4 ×10⁻⁶ cm/s. Moreover, the Papp B→A at 2 h in data set [7] stood at 10 ×10⁻⁶ cm/s. For the same compound, in data set [7], the efflux ratio at 2 h was 0.45.

These data come from US8546435B2, “Triazole derivatives with improved receptor activity and bioavailability properties as ghrelin antagonists of growth hormone secretagogue receptors” (AEterna Zentaris GmbH, priority 2010, dated 2013).
